Read-outs that look alike come from different tables or passages of the source.
Columns and labels:
Type in all cases: cell-based
[1] = molecular target: T1, α7^L131G,Q139L,Y217F-5HT3 S172I (Homo sapiens, UniProt P36544, L131G/M226I/Q139L/S172I/T225I/Y217F); assay: EC50 dose response, PSAM4-5HT3 with additional mutations; conditions: additional mutation S172I; read-out: EC50s (SEM) for additional mutations of α7^L131G, Q139L, Y217F -5HT3
T1 construct: expressed in transfected cells; host or cells: HEK 293
T1 sequence (P36544 with tags, fused parts or gaps L131G/Q139L/S172I/Y217F/T225I/M226I limits assumed): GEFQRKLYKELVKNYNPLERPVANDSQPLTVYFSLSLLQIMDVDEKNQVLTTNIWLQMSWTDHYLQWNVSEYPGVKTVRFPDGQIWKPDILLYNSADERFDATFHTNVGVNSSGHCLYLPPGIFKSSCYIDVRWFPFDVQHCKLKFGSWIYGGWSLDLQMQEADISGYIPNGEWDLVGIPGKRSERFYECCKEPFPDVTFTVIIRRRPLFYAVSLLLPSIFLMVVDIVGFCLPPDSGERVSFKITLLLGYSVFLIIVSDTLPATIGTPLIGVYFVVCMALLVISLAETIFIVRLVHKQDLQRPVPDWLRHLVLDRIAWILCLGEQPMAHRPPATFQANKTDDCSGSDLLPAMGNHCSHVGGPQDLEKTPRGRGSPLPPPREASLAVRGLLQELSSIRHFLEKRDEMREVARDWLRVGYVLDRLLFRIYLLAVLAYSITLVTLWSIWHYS

[2] = molecular target: T2, α7^L131G,Q139L,Y217F-5HT3 V154I, R155Y, W156N, S172V (Homo sapiens, UniProt P36544, L131G/M226I/Q139L/R155Y/S172V/T225I/V154I/W156N/Y217F); assay: as above; conditions: read-out: EC50s (SEM) for additional mutations of α7^L131G, Q139L, Y217F -5HT3
T2 construct: expressed in transfected cells; host or cells: HEK 293
T2 sequence (P36544 with tags, fused parts or gaps L131G/Q139L/V154I/R155Y/W156N/S172V/Y217F/T225I/M226I limits assumed): as the sequence (P36544 with tags, fused parts or gaps L131G/Q139L/S172I/Y217F/T225I/M226I limits assumed) above, with V132I, R133Y, W134N, I150V counted along it

[3] = molecular target: T3, α7-5HT3 L131G, Q139L, Y217A (Homo sapiens, UniProt P36544, L131G/M226I/Q139L/T225I/Y217A); assay: EC50 dose response, α7-5HT3 mutant; conditions: read-out: EC50s (SEM) for additional mutations of α7^L131G, Q139L, Y217F -5HT3
T3 construct: expressed in transfected cells; host or cells: HEK 293
T3 sequence (P36544 with tags, fused parts or gaps L131G/Q139L/Y217A/T225I/M226I limits assumed): as the sequence (P36544 with tags, fused parts or gaps L131G/Q139L/S172I/Y217F/T225I/M226I limits assumed) above, with I150S, F195A counted along it

[4] = molecular target: T4, α7^L131G,Q139L,Y217F-5HT3 H163D (Homo sapiens, UniProt P36544, H163D/L131G/M226I/Q139L/T225I/Y217F); assay: EC50 dose response, PSAM4-5HT3 with additional mutations; conditions: additional mutation H163D; read-out: EC50s (SEM) for additional mutations of α7^L131G, Q139L, Y217F -5HT3
T4 construct: expressed in transfected cells; host or cells: HEK 293

[5] = molecular target: T5, α7^L131G,Q139L,Y217F-5HT3 V154I, R155Y, W156N, S172A (Homo sapiens, UniProt P36544, L131G/M226I/Q139L/R155Y/S172A/T225I/V154I/W156N/Y217F); assay: as above; conditions: read-out: EC50s (SEM) for additional mutations of α7^L131G, Q139L, Y217F -5HT3
T5 construct: expressed in transfected cells; host or cells: HEK 293

[6] = molecular target: T6, α7^L131G,Q139L,Y217F-5HT3 W156N, H163T (Homo sapiens, UniProt P36544, H163T/L131G/M226I/Q139L/T225I/W156N/Y217F); assay: as above; conditions: read-out: EC50s (SEM) for additional mutations of α7^L131G, Q139L, Y217F -5HT3
T6 construct: expressed in transfected cells; host or cells: HEK 293
T6 sequence (P36544 with tags, fused parts or gaps L131G/Q139L/W156N/H163T/Y217F/T225I/M226I limits assumed): as the sequence (P36544 with tags, fused parts or gaps L131G/Q139L/S172I/Y217F/T225I/M226I limits assumed) above, with W134N, H141T, I150S counted along it

[7] = molecular target: T7, α7-5HT3 L131G, Q139L, Y217N (Homo sapiens, UniProt P36544, L131G/M226I/Q139L/T225I/Y217N); assay: EC50 dose response, α7-5HT3 mutant; conditions: read-out: EC50s (SEM) for additional mutations of α7^L131G, Q139L, Y217F -5HT3
T7 construct: 5HT3 ion pore domain (fusion partner); expressed in transfected cells

[8] = molecular target: T8, α7^L131G,Q139L,Y217F-5HT3 V154L, R155Y, W156Q (Homo sapiens, UniProt P36544, L131G/M226I/Q139L/R155Y/T225I/V154L/W156Q/Y217F); assay: EC50 dose response, PSAM4-5HT3 with additional mutations; conditions: read-out: EC50s (SEM) for additional mutations of α7^L131G, Q139L, Y217F -5HT3
T8 construct: expressed in transfected cells; host or cells: HEK 293

[9] = molecular target: T9, α7^L131G,Q139L,Y217F-5HT3 H163T, S172V (Homo sapiens, UniProt P36544, H163T/L131G/M226I/Q139L/S172V/T225I/Y217F); assay: as above; conditions: read-out: EC50s (SEM) for additional mutations of α7^L131G, Q139L, Y217F -5HT3
T9 construct: expressed in transfected cells; host or cells: HEK 293
T9 sequence (P36544 with tags, fused parts or gaps L131G/Q139L/H163T/S172V/Y217F/T225I/M226I limits assumed): as the sequence (P36544 with tags, fused parts or gaps L131G/Q139L/S172I/Y217F/T225I/M226I limits assumed) above, with H141T, I150V counted along it

[10] = molecular target: T10, α7^L131G,Q139L,Y217F-5HT3 H163T (Homo sapiens, UniProt P36544, H163T/L131G/M226I/Q139L/T225I/Y217F); assay: as above; conditions: additional mutation H163T; read-out: EC50s (SEM) for additional mutations of α7^L131G, Q139L, Y217F -5HT3
T10 construct: expressed in transfected cells; host or cells: HEK 293

[11] = molecular target: T11, α7^L131G,Q139L,Y217F-5HT3 H163F (Homo sapiens, UniProt P36544, H163F/L131G/M226I/Q139L/T225I/Y217F); assay: as above; conditions: additional mutation H163F; read-out: EC50s (SEM) for additional mutations of α7^L131G, Q139L, Y217F -5HT3
T11 construct: expressed in transfected cells; host or cells: HEK 293

[12] = molecular target: T12, α7-5HT3 L131G, Q139L, W171Y (Homo sapiens, UniProt P36544, L131G/M226I/Q139L/T225I/W171Y); assay: EC50 dose response, α7-5HT3 mutant; conditions: read-out: EC50s (SEM) for additional mutations of α7^L131G, Q139L, Y217F -5HT3
T12 construct: expressed in transfected cells; host or cells: HEK 293
T12 sequence (P36544 with tags, fused parts or gaps L131G/Q139L/W171Y/T225I/M226I limits assumed): as the sequence (P36544 with tags, fused parts or gaps L131G/Q139L/S172I/Y217F/T225I/M226I limits assumed) above, with W149Y, I150S, F195Y counted along it

[13] = molecular target: T13, α7^L131G,Q139L,Y217F-5HT3 H163T, S172A (Homo sapiens, UniProt P36544, H163T/L131G/M226I/Q139L/S172A/T225I/Y217F); assay: EC50 dose response, PSAM4-5HT3 with additional mutations; conditions: read-out: EC50s (SEM) for additional mutations of α7^L131G, Q139L, Y217F -5HT3
T13 construct: expressed in transfected cells; host or cells: HEK 293
T13 sequence (P36544 with tags, fused parts or gaps L131G/Q139L/H163T/S172A/Y217F/T225I/M226I limits assumed): as the sequence (P36544 with tags, fused parts or gaps L131G/Q139L/S172I/Y217F/T225I/M226I limits assumed) above, with H141T, I150A counted along it

[14] = molecular target: T14, α7^L131G,Q139L,Y217F-5HT3 H163S (Homo sapiens, UniProt P36544, H163S/L131G/M226I/Q139L/T225I/Y217F); assay: as above; conditions: additional mutation H163S; read-out: EC50s (SEM) for additional mutations of α7^L131G, Q139L, Y217F -5HT3
T14 construct: expressed in transfected cells; host or cells: HEK 293

[15] = molecular target: T15, α7^L131G,Q139L,Y217F-5HT3 S172A (Homo sapiens, UniProt P36544, L131G/M226I/Q139L/S172A/T225I/Y217F); assay: as above; conditions: additional mutation S172A; read-out: EC50s (SEM) for additional mutations of α7^L131G, Q139L, Y217F -5HT3
T15 construct: expressed in transfected cells; host or cells: HEK 293

[16] = molecular target: T16, α7^L131G,Q139L,Y217F-5HT3 H163N (Homo sapiens, UniProt P36544, H163N/L131G/M226I/Q139L/T225I/Y217F); assay: as above; conditions: additional mutation H163N; read-out: EC50s (SEM) for additional mutations of α7^L131G, Q139L, Y217F -5HT3
T16 construct: expressed in transfected cells; host or cells: HEK 293

[17] = molecular target: T17, α7-5HT3 L131G, Q139L, Y217H (Homo sapiens, UniProt P36544, L131G/M226I/Q139L/T225I/Y217H); assay: EC50 dose response, α7-5HT3 mutant; conditions: read-out: EC50s (SEM) for additional mutations of α7^L131G, Q139L, Y217F -5HT3
T17 construct: expressed in transfected cells; host or cells: HEK 293

[18] = molecular target: T18, α7^L131G,Q139L,Y217F-5HT3 H163K (Homo sapiens, UniProt P36544, H163K/L131G/M226I/Q139L/T225I/Y217F); assay: EC50 dose response, PSAM4-5HT3 with additional mutations; conditions: additional mutation H163K; read-out: EC50s (SEM) for additional mutations of α7^L131G, Q139L, Y217F -5HT3
T18 construct: expressed in transfected cells; host or cells: HEK 293
T18 sequence (P36544 with tags, fused parts or gaps L131G/Q139L/H163K/Y217F/T225I/M226I limits assumed): as the sequence (P36544 with tags, fused parts or gaps L131G/Q139L/S172I/Y217F/T225I/M226I limits assumed) above, with H141K, I150S counted along it

[19] = molecular target: T19, α7^L131G,Q139L,Y217F-5HT3 H163R (Homo sapiens, UniProt P36544, H163R/L131G/M226I/Q139L/T225I/Y217F); assay: as above; conditions: additional mutation H163R; read-out: EC50s (SEM) for additional mutations of α7^L131G, Q139L, Y217F -5HT3
T19 construct: expressed in transfected cells; host or cells: HEK 293

[20] = molecular target: T20, α7-5HT3 L131G, Q139L, W171F (Homo sapiens, UniProt P36544, L131G/M226I/Q139L/T225I/W171F); assay: EC50 dose response, α7-5HT3 mutant; conditions: read-out: EC50s (SEM) for additional mutations of α7^L131G, Q139L, Y217F -5HT3
T20 construct: expressed in transfected cells; host or cells: HEK 293

[21] = molecular target: T21, α7-5HT3 L131G, Q139L, Y217V (Homo sapiens, UniProt P36544, L131G/M226I/Q139L/T225I/Y217V); assay: EC50 dose response, α7-5HT3 mutant; conditions: read-out: EC50s (SEM) for additional mutations of α7^L131G, Q139L, Y217F -5HT3
T21 construct: 5HT3 ion pore domain (fusion partner); expressed in transfected cells; HEK 293 is named only for the electrophysiology

[22] = molecular target: T22, PSAM4-5HT3 (α7-5HT3^L131G,Q139L,Y217F) (Homo sapiens, UniProt P36544, L131G/M226I/Q139L/T225I/Y217F); assay: EC50 dose response of LGIC ligands on PSAM4-5HT3; conditions: read-out: EC50s (SEM) for additional mutations of α7^L131G, Q139L, Y217F -5HT3
T22 construct: expressed in transfected cells; host or cells: HEK 293
T22 sequence (P36544 with tags, fused parts or gaps L131G/Q139L/Y217F/T225I/M226I limits assumed): as the sequence (P36544 with tags, fused parts or gaps L131G/Q139L/S172I/Y217F/T225I/M226I limits assumed) above, with I150S counted along it

[23] = molecular target: T23, α7^L131G,Q139L,Y217F-5HT3 H163V (Homo sapiens, UniProt P36544, H163V/L131G/M226I/Q139L/T225I/Y217F); assay: EC50 dose response, PSAM4-5HT3 with additional mutations; conditions: additional mutation H163V; read-out: EC50s (SEM) for additional mutations of α7^L131G, Q139L, Y217F -5HT3
T23 construct: expressed in transfected cells; host or cells: HEK 293

[24] = molecular target: T24, α7^L131G,Q139L,Y217F-5HT3 W156N (Homo sapiens, UniProt P36544, L131G/M226I/Q139L/T225I/W156N/Y217F); assay: cell-based; conditions: additional mutation W156N; read-out: EC50s (SEM) for additional mutations of α7^L131G, Q139L, Y217F -5HT3
T24 construct: expressed in transfected cells; host or cells: HEK 293

[25] = molecular target: T25, α7^L131G,Q139L,Y217F-5HT3 S172V (Homo sapiens, UniProt P36544, L131G/M226I/Q139L/S172V/T225I/Y217F); assay: EC50 dose response, PSAM4-5HT3 with additional mutations; conditions: additional mutation S172V; read-out: EC50s (SEM) for additional mutations of α7^L131G, Q139L, Y217F -5HT3
T25 construct: expressed in transfected cells; host or cells: HEK 293
T25 sequence (P36544 with tags, fused parts or gaps L131G/Q139L/S172V/Y217F/T225I/M226I limits assumed): as the sequence (P36544 with tags, fused parts or gaps L131G/Q139L/S172I/Y217F/T225I/M226I limits assumed) above, with I150V counted along it

[26] = molecular target: T26, α7^L131G,Q139L,Y217F-5HT3 H163A (Homo sapiens, UniProt P36544, H163A/L131G/M226I/Q139L/T225I/Y217F); assay: as above; conditions: additional mutation H163A; read-out: EC50s (SEM) for additional mutations of α7^L131G, Q139L, Y217F -5HT3
T26 construct: expressed in transfected cells; host or cells: HEK 293
T26 sequence (P36544 with tags, fused parts or gaps L131G/Q139L/H163A/Y217F/T225I/M226I limits assumed): as the sequence (P36544 with tags, fused parts or gaps L131G/Q139L/S172I/Y217F/T225I/M226I limits assumed) above, with H141A, I150S counted along it

[27] = molecular target: T27, α7^L131G,Q139L,Y217F-5HT3 V154I, R155Y, W156N (Homo sapiens, UniProt P36544, L131G/M226I/Q139L/R155Y/T225I/V154I/W156N/Y217F); assay: as above; conditions: read-out: EC50s (SEM) for additional mutations of α7^L131G, Q139L, Y217F -5HT3
T27 construct: expressed in transfected cells; host or cells: HEK 293

[28] = PSAM4-5HT3 (no additional mutation)
[29] = line L131G, Q139L, Y217F (same values as PSAM4-5HT3 line)

Compound | EC50 [1] | EC50 [2] | EC50 [3] | EC50 [4] | EC50 [5] | EC50 [6] | EC50 [7] | EC50 [8] | EC50 [9] | EC50 [10] | EC50 [11] | EC50 [12] | EC50 [13] | EC50 [14] | EC50 [15] | EC50 [16] | EC50 [17] | EC50 [18] | EC50 [19] | EC50 [20] | further results
COc1cnc2cc3c(cc2n1)C1CNCC3C1 (stereo not shown) [uPSEM 793] | 10 nM | 7.7 nM | 1.2 nM | 0.3 nM | 4.1 nM | 2 nM | > 100 nM | 0.7 nM | 1.5 nM | 1.4 nM | 0.7 nM | > 100 nM | 2.5 nM | 0.4 nM | 4 nM | 2.1 nM | 0.8 nM | 0.5 nM | 1.5 nM | > 100 nM | EC50 [21]: 2.4 nM; EC50 [22, 28]: 1.7 nM; EC50 [22, 29]: 1.7 nM; EC50 [23]: 1.5 nM; EC50 [24]: 0.7 nM; EC50 [25]: 2.7 nM; EC50 [26]: 0.5 nM
CCCOc1cnc2cc3c(cc2n1)C1CNCC3C1 (stereo not shown) [uPSEM 817] | 18 nM | 13 nM | 9.2 nM | 2.5 nM | 12 nM | 13 nM | > 100 nM | 17 nM | 6.3 nM | 12 nM | 8.2 nM | > 100 nM | 7.8 nM | 8.1 nM | 7 nM | 9.1 nM | 16 nM | 10 nM | 5.5 nM | > 100 nM | EC50 [21]: 24 nM; EC50 [22, 28]: 4.1 nM; EC50 [22, 29]: 4.1 nM; EC50 [23]: 9 nM; EC50 [24]: 15 nM; EC50 [27]: 13 nM; EC50 [25]: 6 nM; EC50 [26]: 53 nM

— patent US20250145687A1, “MODIFIED LIGAND-GATED ION CHANNELS AND METHODS OF USE” (Howard Hughes Medical Institute, priority 2022, published 2025)
